Measured values published in patent US8263598B2, “Substituted sulfonamide compounds” (Gruenenthal GmbH, priority 2008, dated 2012).

Assays:
[1] = target: T1, human B1R receptor (hB1R) (Homo sapiens, UniProt P46663); experiment: FLIPR Ca2+ assay on human bradykinin 1 receptor (CHO K1 hB1R cells); assay type: cell-based; conditions: test substance 10 μM; CHO K1 cells with human B1R gene; agonist Lys-Des-Arg9-bradykinin 0.5 nM; compared to maximum achievable inhibition
T1 construct: host or cells: CHO K1 cells
T1 sequence (P46663 1-353): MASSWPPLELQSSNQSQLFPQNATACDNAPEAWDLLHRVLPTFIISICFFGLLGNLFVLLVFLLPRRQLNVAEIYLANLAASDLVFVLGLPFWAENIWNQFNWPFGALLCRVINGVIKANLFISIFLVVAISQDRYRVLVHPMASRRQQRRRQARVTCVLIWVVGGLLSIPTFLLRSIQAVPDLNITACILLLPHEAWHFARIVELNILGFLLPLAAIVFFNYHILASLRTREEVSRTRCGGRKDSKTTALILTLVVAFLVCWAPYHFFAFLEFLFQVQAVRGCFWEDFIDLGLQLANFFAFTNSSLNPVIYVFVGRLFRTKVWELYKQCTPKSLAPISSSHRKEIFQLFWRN
Experimental: (§1) The agonistic or antagonistic action of compounds can be quantified on the bradykinin 1 receptor (B1R) of humans and rats with ectopically expressing cell lines (CHO K1 cells) and with the aid of a Ca^2+-sensitive dye (Fluo-4) in the fluorescent imaging plate reader (FLIPR). The figure in percent activation refers to the Ca^2+ signal after addition of Lys-Des-Arg^9-bradykinin (0.5 nM) and Des-Arg^9-bradykinin (100 nM). Antagonists result in a suppression of the Ca^2+ inflow after the addition of the agonist. Percent inhibition values are given in comparison to the maximum achievable inhibition.
(§2) The agonistic or antagonistic action of substances can be determined on the bradykinin 1 receptor (B1R) of humans and rats by means of the following assay.
(§3) According to this assay the Ca^2+ inflow through the channel is quantified by means of a Ca^2+-sensitive dye (Fluo-4 type, Molecular Probes Europe BV, Leiden, Netherlands), in a Fluorescent Imaging Plate Reader (FLIPR, Molecular Devices, Sunnyvale, USA). Method:
(§4) Chinese hamster ovary cells (CHO K1 cells) are used, which are stably transfected with the human B1R gene (hB1R cells, Euroscreen s.a., Gosselies, Belgium), or with the B1R gene of rats (rB1R cells, Axxam, Milan, Italy). For functional investigations these cells are plated out on black 96-well plates with a clear floor (BD Biosciences, Heidelberg, Germany) in a density of 20,000/25,000 cells/well. The cells are incubated overnight with 10 vol. % FBS (foetal bovine serum, Gibco Invitrogen GmbH, Karlsruhe, Germany) at 37° C. and 5% CO2 in a culture medium (hB1R cells: Nutrient Mixture Ham's F12, Gibco Invitrogen GmbH, Karlsruhe, Germany; rB1R cells: D-MEM/F12, Gibco Invitrogen GmbH, Karlsruhe, Germany). The following day the cells are charged for 60 minutes at 37° C. with 2.13 μM Fluo-4 (Molecular Probes Europe BV, Leiden, Netherlands) in HBSS buffer (Hank's buffered saline solution, Gibco Invitrogen GmbH, Karlsruhe, Germany) together with […] (Sigma-Aldrich, Taufkirchen, Germany) and 10 mM HEPES (Sigma-Aldrich, Taufkirchen, Germany).
(§5) The plates are then washed twice with HBSS buffer and HBSS buffer is added which additionally contains 0.1% BSA (bovine serum albumin; Sigma-Aldrich, Taufkirchen, Germany), 5.6 mM glucose and 0.05% gelatin (Merck KGaA, Darmstadt, Germany). After further incubation for 20 minutes at room temperature the plates are used for the Ca^2+ measurement in the FLIPR. The Ca^2+-dependent fluorescence is measured both before and after the addition of substances (λex=488 nm, λem=540 nm). The quantification is carried out by measuring the highest fluorescence intensity (FC, fluorescence counts) over time.
(§6) The FLIPR protocol consists of two substance additions. First of all test substances (10 μM) are pipetted onto the cells and the Ca^2+ inflow is compared with the control (hB1R: Lys-Des-Arg9-bradykinin 0.5 nM; rB1R: Des-Arg9-bradykinin 100 nM). This gives the result in percent activation referred to the Ca^2+ signal after addition of Lys-Des-Arg9-bradykinin (0.5 nM), bzw. Des-Arg9-bradykinin (100 nM). After 10 minutes' incubation 0.5 nM Lys-Des-Arg9-bradykinin (hB1R) and 100 nM Des-Arg^9-bradykinin (rB1R) are applied and the inflow of Ca^2+ is likewise determined. Antagonists lead to a suppression of the Ca^2+ inflow. The percent inhibition compared to the maximum achievable inhibition is calculated. The compounds show a good activity on both human and rat receptors.
(§7) The agonistic and antagonistic action of the compounds according to the invention on the bradykinin 1 receptor (B1R) of humans and rats were determined as described above. Antagonists lead to a suppression of the Ca^2+ inflow. The % inhibition compared to the maximum achievable inhibition was calculated.

[2] = target: T2, B1R receptor of rats (rB1R) (Rattus norvegicus, UniProt P97583); experiment: FLIPR Ca2+ assay on rat bradykinin 1 receptor (CHO K1 rB1R cells); assay type: cell-based; conditions: test substance 10 μM; CHO K1 cells with B1R gene of rats; agonist Des-Arg9-bradykinin 100 nM; compared to maximum achievable inhibition
T2 construct: host or cells: CHO K1 cells
T2 sequence (P97583 1-337): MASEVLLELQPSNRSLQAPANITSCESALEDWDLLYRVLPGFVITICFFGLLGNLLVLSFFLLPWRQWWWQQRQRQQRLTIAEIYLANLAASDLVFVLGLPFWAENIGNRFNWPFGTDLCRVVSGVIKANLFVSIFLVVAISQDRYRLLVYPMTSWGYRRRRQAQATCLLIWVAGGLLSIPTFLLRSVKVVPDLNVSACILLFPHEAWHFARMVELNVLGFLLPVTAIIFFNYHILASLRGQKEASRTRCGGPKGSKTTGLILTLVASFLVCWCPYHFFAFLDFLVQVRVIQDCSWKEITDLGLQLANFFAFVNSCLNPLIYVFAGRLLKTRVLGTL
Experimental: as §1, §2, §3, §4, §5, §6, §7

inhibition at 10 µM [1] [%]	inhibition at 10 µM [2] [%]	SMILES
101	99	Cc1cc(C)c(S(=O)(=O)N(C)CCOCC(=O)N2CCn3cccc3C2C(C)(C)C)c(C)c1 (centres unmarked) [Example 65, N-(2-(2-(1-tert-butyl-3,4-dihydropyrrolo[1,2-a]pyrazin-2(1H)-yl)-2-oxoethoxy)ethyl)-N,2,4,6-tetramethylbenzenesulfonamide]
54	98	COc1cc(C)c(S(=O)(=O)N(CCOCC(=O)N2CCn3cccc3C2c2ccccc2)Cc2ccccc2)c(C)c1 (centres unmarked) [Example 48, N-benzyl-4-methoxy-2,6-dimethyl-N-(2-(2-oxo-2-(1-phenyl-3,4-dihydropyrrolo[1,2-a]pyrazin-2(1H)-yl)ethoxy)ethyl)benzenesulfonamide]
44	100	CN1CCN(CCCc2ccc3n2CCN(C(=O)CC(NS(=O)(=O)c2ccc4ccccc4c2)c2ccccc2)C3)CC1 (centres unmarked) [Example 13, N-(3-(6-(3-(4-methylpiperazin-1-yl)propyl)-3,4-dihydropyrrolo[1,2-a]pyrazin-2(1H)-yl)-3-oxo-1-phenylpropyl)naphthalene-2-sulfonamide]
102	98	O=C(C[C@@H](NS(=O)(=O)c1ccc2ccccc2c1)c1ccccc1)N1CCn2cc(CN3CCCCC3)nc2C1 [Example 4, (R)-N-(3-oxo-1-phenyl-3-(2-(piperidin-1-ylmethyl)-5,6-dihydroimidazo[1,2-a]pyrazin-7(8H)-yl)propyl)naphthalene-2-sulfonamide]
98	76	COc1c(C)cc(S(=O)(=O)N(C)CCOCC(=O)N2CCn3cccc3C2c2ccc(Cl)nc2)c(C)c1C (centres unmarked) [Example 30, N-(2-(2-(1-(6-chloropyridin-3-yl)-3,4-dihydropyrrolo[1,2-a]pyrazin-2(1H)-yl)-2-oxoethoxy)ethyl)-4-methoxy-N,2,3,5-tetramethylbenzenesulfonamide]
103	103	Cc1cc(C)c(S(=O)(=O)N(C)CCOCC(=O)N2CCn3cccc3C2C(C)C)c(C)c1 (centres unmarked) [Example 147, N-(2-(2-(1-isopropyl-3,4-dihydropyrrolo[1,2-a]pyrazin-2(1H)-yl)-2-oxoethoxy)ethyl)-N,2,4,6-tetramethylbenzenesulfonamide]
98	102	COc1c(C)cc(S(=O)(=O)N(C)CCOCC(=O)N2CCn3c(CN4CCCCC4)ccc3C2c2ccccc2)c(C)c1C (centres unmarked) [Example 107, 4-methoxy-N,2,3,5-tetramethyl-N-(2-(2-oxo-2-(1-phenyl-6-(piperidin-1-ylmethyl)-3,4-dihydropyrrolo[1,2-a]pyrazin-2(1H)-yl)ethoxy)ethyl)benzene-sulfonamide]
101	100	Cc1cc(C)c(S(=O)(=O)N(C)CCOCC(=O)N2CCn3cccc3C2c2ccc(Cl)nc2)c(C)c1 (centres unmarked) [Example 68, N-(2-(2-(1-(6-chloropyridin-3-yl)-3,4-dihydropyrrolo[1,2-a]pyrazin-2(1H)-yl)-2-oxoethoxy)ethyl)-N,2,4,6-tetramethylbenzenesulfonamide]
34	99	COc1cccc(C2c3cccn3CCN2C(=O)COCCN(CC(C)C)S(=O)(=O)c2c(C)cc(OC)c(C)c2C)c1 (centres unmarked) [Example 26, N-isobutyl-4-methoxy-N-(2-(2-(1-(3-methoxyphenyl)-3,4-dihydropyrrolo[1,2-a]pyrazin-2(1H)-yl)-2-oxoethoxy)ethyl)-2,3,6-trimethylbenzenesulfonamide]
99	102	Cc1cc(C)c(S(=O)(=O)N(C)CCOCC(=O)N2CCn3cccc3C2c2cccs2)c(C)c1 (centres unmarked) [Example 74, N,2,4,6-tetramethyl-N-(2-(2-oxo-2-(1-(thiophen-2-yl)-3,4-dihydropyrrolo[1,2-a]pyrazin-2(1H)-yl)ethoxy)ethyl)benzenesulfonamide]
100	99	COc1cc(C)c(S(=O)(=O)N(C)CCOCC(=O)N2CCn3cccc3C2c2cccc(C(F)(F)F)c2)c(C)c1 (centres unmarked) [Example 61, 4-methoxy-N,2,6-trimethyl-N-(2-(2-oxo-2-(1-(3-(trifluoromethyl)phenyl)-3,4-dihydropyrrolo[1,2-a]pyrazin-2(1H)-yl)ethoxy)ethyl)benzenesulfonamide]
103	101	Cc1cc(C)c(S(=O)(=O)N(C)CCOCC(=O)N2CCn3c(CN4CCOCC4)ccc3C2c2ccccc2)c(C)c1 (centres unmarked) [Example 142, N,2,4,6-tetramethyl-N-(2-(2-(6-(morpholinomethyl)-1-phenyl-3,4-dihydro-pyrrolo[1,2-a]pyrazin-2(1H)-yl)-2-oxoethoxy)ethyl)benzenesulfonamide]
101	98	COc1cc(C)c(S(=O)(=O)N(CCOCC(=O)N2CCn3cccc3C2c2cccnc2)CC(C)C)c(C)c1C (centres unmarked) [Example 19, N-isobutyl-4-methoxy-2,3,6-trimethyl-N-(2-(2-oxo-2-(1-(pyridin-3-yl)-3,4-dihydropyrrolo[1,2-a]pyrazin-2(1H)-yl)ethoxy)ethyl)benzenesulfonamide]
99	97	COc1cc(C)c(S(=O)(=O)N(C)CCOCC(=O)N2CCn3cccc3C2C)c(C)c1C (centres unmarked) [Example 80, 4-methoxy-N,2,3,6-tetramethyl-N-(2-(2-(1-methyl-3,4-dihydropyrrolo[1,2-a]pyrazin-2(1H)-yl)-2-oxoethoxy)ethyl)benzenesulfonamide]
101	100	COc1cc(C)c(S(=O)(=O)N(C)CCOCC(=O)N2CCn3cccc3C2c2cccc(F)c2)c(C)c1C (centres unmarked) [Example 87, N-(2-(2-(1-(3-fluorophenyl)-3,4-dihydropyrrolo[1,2-a]pyrazin-2(1H)-yl)-2-oxoethoxy)ethyl)-4-methoxy-N,2,3,6-tetramethylbenzenesulfonamide]
45	87	O=C(CC(NS(=O)(=O)c1ccc2ccccc2c1)c1ccccc1)N1CCn2c(Cc3cccnc3)ccc2C1 (centres unmarked) [Example 176, N-(3-Oxo-1-phenyl-3-(6-(pyridin-3-ylmethyl)-3,4-dihydropyrrolo[1,2-a]pyrazin-2(1H)-yl)propyl)naphthalene-2-sulfonamide]
